Assay results reported in patent US11331306B2, “Pharmaceutical compositions comprising 4-[1-(2,3-dimethylphenyl)ethyl]-3H-imidazole derivatives for treating retinal diseases” (Allergan, Inc., priority 2011, dated 2022).
Read-outs that look alike come from different tables or passages of the source.

Columns and labels:
α2A-adrenergic receptor = molecular target: T1, α2A-adrenergic receptor (Homo sapiens, UniProt P08913); details: for down regulation of alpha 2A receptor (receptor density): binding studies, result in words; for Percent of B max Decrease: 24 hours, HEK 293T cells stably transfected with α2A-adrenergic receptor
T1 sequence (P08913 1-465): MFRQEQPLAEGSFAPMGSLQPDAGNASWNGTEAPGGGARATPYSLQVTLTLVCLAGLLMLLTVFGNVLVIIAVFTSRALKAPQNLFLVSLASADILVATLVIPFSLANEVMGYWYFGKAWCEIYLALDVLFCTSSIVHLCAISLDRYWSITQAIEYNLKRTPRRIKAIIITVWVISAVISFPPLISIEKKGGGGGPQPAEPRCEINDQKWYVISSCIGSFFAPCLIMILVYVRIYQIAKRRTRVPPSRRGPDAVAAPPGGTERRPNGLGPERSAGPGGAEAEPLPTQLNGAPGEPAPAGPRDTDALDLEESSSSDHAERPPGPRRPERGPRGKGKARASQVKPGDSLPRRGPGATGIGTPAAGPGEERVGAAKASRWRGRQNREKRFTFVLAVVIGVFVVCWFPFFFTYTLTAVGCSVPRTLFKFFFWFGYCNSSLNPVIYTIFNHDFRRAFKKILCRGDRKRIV
Experimental: Human embryonic kidney (HEK) 293T cells stably transfected with the α2A-adrenergic receptor were grown to 50-60% confluency on T-175 culture flasks in DMEM (Gibco, cat. #11995), 10% FBS (Gibco, cat. #16140), 0.25 μg/ml puromycin (Sigma, cat. # P-8833), and 1% antibiotic-antimycotic (Gibco, cat. #15240) maintained at 37° C. and 5% CO2. […] The cells were then washed with room temperature Dulbecco's phosphate buffered saline (DPBS; Gibco, cat. #14190).
Cells were harvested with 4° C. Tris-EDTA buffer [50 mM Tris-HCl, 5 mM EDTA; pH 7.4] and centrifuged at 5,000×g for 5 minutes at 4° C. Membrane preparation was conducted by resuspending the cell pellets in 4° C. Tris-EDTA buffer and lysed with a Polytron disrupter two times (setting 7, 5 seconds each). The lysed suspension was then centrifuged at […] for 32 minutes at 4° C. After decanting the supernatant, the pelleted material was further lysed in 4° C. Tris buffer [50 mM Tris-HCl; pH 8.0] using the Polytron disrupter (setting 4, 5 seconds). Membranes were then aliquoted, pelleted at […] for 32 minutes at 4° C., and stored at −80° C. until use.
Membranes were thawed and resuspended using a Polytron disrupter in 4° C. HBSS-HEPES buffer [1 part 1M HEPES: 5 parts 10× Hank's Balanced Salt Solution: 43.8 parts H2O; pH 7.4 with KOH) and quantified via Bradford assay. The quantified protein was further diluted with HBSS-HEPES buffer to achieve a 100 μg/ml concentration. Membrane suspension was plated in a 96-well plate at 200 IμLs/well±10 μM phentolamine HCl (Sigma, cat. # P-7547) and [Methyl-^3H] Rauwolscine (15 nM to 0.05 nM; PerkinElmer, cat. # NET722250UC). The assay plate was slowly shaken and incubated at 25° C. for ninety minutes. Immediately following the above incubation, the assays were terminated by vacuum filtration over GF/B filters. Filters were then washed with 4° C. HBSS-HEPES buffer. The incorporated [Methyl-^3H] Rauwolscine was determined using a Microbeta 1450B liquid scintillation counter after the plates had dried overnight.

alpha 2A receptor = molecular target: T2, alpha 2A receptor (Homo sapiens, UniProt P08913); assay: biochemical; details: for Relative Efficacy: efficacy relative to the full agonist brimonidine (1.0)
T2 sequence (P08913 1-465): T1 sequence (P08913 1-465)
Experimental: In the GTPase assay, receptor activation results in dissociation of GDP and binding of the nonhydrolyzable [^35S]GTPyS to receptor-coupled G-proteins. The extent of binding is a measure of receptor activation. Membranes were prepared from HEK cells transiently expressing the alpha 2A receptor and the three subunits of the Gi G-protein. Membranes were thawed and resuspended using a Polytron disrupter in 4° C. membrane buffer and quantified via Bradford assay. The quantified protein was then added to reaction buffer [50 mM Tris-HCl, 100 mM NaCl, 5 mM MgCl2, 1 mM DTT, 1 mM EDTA, 3 μM propranolol, and 0.1 mM AMP; pH 7.4 and 4° C. to achieve a 100 μg/ml concentration, allowed to incubate for 15 minutes, and then incubated for an additional 10 minutes in the presence of 6 μM GDP. The above mixture was then aliquoted, 50 μL/well, in a 96 well plate, combined with an equal volume of test compound dissolved in assay buffer [50 mM Tris-HCl, 100 mM NaCl, 5 mM MgCl2, 1 mM EDTA, and 1 mM DTT, pH 7.4 and 4° C.], and allowed to incubate for 5 minutes. Immediately following the above incubation, the mixture was combined with 50 μL of 1.5 nM [^35S]GTPyS in assay buffer and shaken covered for 60 minutes at 25° C. Assays were terminated by vacuum filtration over GF/B filters blocked with 0.5% BSA. Filters were then washed with 4° C. wash buffer [50 mM Tris-HCl, 100 mM NaCl, and 5 mM MgCl2, pH 7.5. The incorporated [^35S]GTPyS was determined using a Microbeta 1450B liquid scintillation counter after the plates had dried overnight.

[1] = system: blue light model of retinal degeneration in rats; assay: blue light model of retinal degeneration, retinal thickness by OCT; type: in vivo, Sprague Dawley rats; details: 1 mg/kg/day subcutaneous infusion from two days before 4 hours blue light, OCT at 7 days post exposure, versus saline
Experimental: (§1) Drugs were administered continuously with subcutaneous infusion pumps at a dose of 1 mg/kg/day starting two days before blue light exposure. These concentrations result in drug levels in the retina of 2.3 ng/g OH-dexmedetomidine which are sufficient for pharmacological activity. Twenty 4-month old male Sprague Dawley rats (body weight 470-550 g) were used in this study. The animals were exposed to room light on a 12 hour light/12 hour dark cycle before the experiment. All animals were dark adapted overnight (16-20 hours) before blue light. Under the intensity of 6100-6500 lux, rats were exposed to blue light for 4 hours. After the blue light, rats were placed in the dark for another 3 days before returning to normal 12 hour light/12 hour dark. Ocular Coherence Tomography (OCT) measurement was performed at 7 days post blue light exposure. […] Histology studies have shown that the reduction in retinal thickness is attributable to loss of photoreceptors.

[2] = drug level in the retina under continuous subcutaneous infusion; type: in vivo, Sprague Dawley rats; details: rats, continuous subcutaneous infusion pumps, 1 mg/kg/day
Experimental: as §1

Row | Structure (SMILES) | down regulation of alpha 2A receptor (receptor density) (α2A-adrenergic receptor) | Percent of B max Decrease (α2A-adrenergic receptor; compound concentration 1 μM) [%] | Percent of B max Decrease (α2A-adrenergic receptor; compound concentration 10 μM) [%] | EC50 (alpha 2A receptor) [nM] | Relative Efficacy (alpha 2A receptor) | damage caused by blue light (reduction of retinal thickness measured by OCT) [1] | damage caused by blue light (reduction of retinal thickness measured by OCT) ([1]; listed as (S) [3-(1-(1H-imidazol-4-yl)ethyl)-2-methylphenyl] methanol) | drug levels in the retina [2] [ng/g]
1 | Brc1c(N=C2NCCN2)ccc2nccnc12 [brimonidine, (5-bromo-quinoxalin-6-yl)-imidazolidin-2-ylidene-amine, reference compound] | strong reduction in the alpha 2A receptor density | −45 | −60 | – | – | – | – | –
2 | Cc1c(CO)cccc1[C@H](C)c1c[nH]cn1 [OH-dexmedetomidine, (S) [3-(1-(1H-imidazol-4-yl)ethyl)-2-methylphenyl] methanol] | very little down regulation of alpha 2A receptor | −25 | −14 | 45 | 0.65 | significantly reduced the damage caused by blue light | reduced the damage caused by blue light | 2.3
3 | Cc1c(CO)cccc1C(C)c1c[nH]cn1 (racemic) [OH-medetomidine, [3-(1-(1H-imidazol-4-yl)ethyl)-2-methylphenyl] methanol, reference compound] | – | – | – | 20 | 0.26 | – | – | –
